PubChem BioAssay (NCI)
Where “and” joins values, the source holds several entries; their conditions need not be identical. Equal values may be shown once.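 Protocol summary: plate cells (96-well), add compound at 5 concentrations, incubate 48 h, interpolate endpoints linearly. Abbreviation: GI50, concentration required for 50% inhibition of growth. TGI: concentration producing complete growth inhibition.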

Assays:
Assay in all cases: growth of human tumour cells (NCI), 48 h
SK-MEL-28 melanoma = system: SK-MEL-28 melanoma
RPMI-8226 leukemia = system: RPMI-8226 leukemia
SW-620 colon = system: SW-620 colon
NCI/ADR-RES ovarian = system: NCI/ADR-RES ovarian
NCI-H226 lung = system: NCI-H226 lung
UACC-62 melanoma = system: UACC-62 melanoma
HOP-92 NSCLC = system: HOP-92 NSCLC
T-47D breast = system: T-47D breast
NCI-H23 lung = system: NCI-H23 lung
HCT-15 colon = system: HCT-15 colon
IGROV1 ovarian = system: IGROV1 ovarian
DU-145 prostate = system: DU-145 prostate
U251 CNS = system: U251 CNS
SF-539 CNS = system: SF-539 CNS
CAKI-1 renal = system: CAKI-1 renal
HS 578T breast = system: HS 578T breast
786-0 renal = system: 786-0 renal
SNB-19 CNS = system: SNB-19 CNS
HL-60(TB) leukemia = system: HL-60(TB) leukemia
UO-31 renal = system: UO-31 renal
RXF 393 renal = system: RXF 393 renal
M14 melanoma = system: M14 melanoma
SF-268 CNS = system: SF-268 CNS
SR leukemia = system: SR leukemia
OVCAR-3 ovarian = system: OVCAR-3 ovarian
MDA-MB-435 = system: MDA-MB-435
ACHN renal = system: ACHN renal
SK-OV-3 ovarian = system: SK-OV-3 ovarian
LOX IMVI melanoma = system: LOX IMVI melanoma
HT29 colon = system: HT29 colon
OVCAR-8 ovarian = system: OVCAR-8 ovarian
UACC-257 melanoma = system: UACC-257 melanoma
SK-MEL-5 melanoma = system: SK-MEL-5 melanoma
TK-10 renal = system: TK-10 renal
SN12C renal = system: SN12C renal
PC-3 prostate = system: PC-3 prostate
OVCAR-4 ovarian = system: OVCAR-4 ovarian
K-562 leukemia = system: K-562 leukemia
MALME-3M melanoma = system: MALME-3M melanoma
MDA-MB-231 breast = system: MDA-MB-231 breast
MOLT-4 leukemia = system: MOLT-4 leukemia
HCT-116 colon = system: HCT-116 colon
HOP-62 NSCLC = system: HOP-62 NSCLC
MCF7 breast = system: MCF7 breast
A498 renal = system: A498 renal
NCI-H460 lung = system: NCI-H460 lung
OVCAR-5 ovarian = system: OVCAR-5 ovarian
SNB-75 CNS = system: SNB-75 CNS
CCRF-CEM leukemia = system: CCRF-CEM leukemia
NCI-H522 lung = system: NCI-H522 lung
A549 NSCLC = system: A549 NSCLC
HCC-2998 colon = system: HCC-2998 colon
SF-295 CNS = system: SF-295 CNS
KM12 colon = system: KM12 colon
SK-MEL-2 melanoma = system: SK-MEL-2 melanoma
COLO 205 colon = system: COLO 205 colon
BT-549 breast = system: BT-549 breast

CCCCCc1c(C)[nH]c(/C=C2\N=C(c3ccc[nH]3)C=C2OCc2ccccc2)c1C
GI50 (SK-MEL-28 melanoma): 105 nM and 45.9 nM
TGI (SK-MEL-28 melanoma): 1050 nM and 267 nM
GI50 (RPMI-8226 leukemia): 34.3 nM and 30.1 nM
TGI (RPMI-8226 leukemia): 235 nM and 317 nM
GI50 (SW-620 colon): 36.9 nM and 29.5 nM
TGI (SW-620 colon): 1210 nM and 322 nM
GI50 (NCI/ADR-RES ovarian): 255 nM and 77.6 nM
TGI (NCI/ADR-RES ovarian): 1460 nM and 761 nM
GI50 (NCI-H226 lung): 74.8 nM and 201 nM
TGI (NCI-H226 lung): 1650 nM and 2030 nM
GI50 (UACC-62 melanoma): 23 nM
TGI (UACC-62 melanoma): 53.8 nM and 50.6 nM
GI50 (HOP-92 NSCLC): 8.32 nM and 18.7 nM
TGI (HOP-92 NSCLC): 56.2 nM and 64.7 nM
GI50 (T-47D breast): 44.5 nM and 31.1 nM
TGI (T-47D breast): 741 nM and 1010 nM
GI50 (NCI-H23 lung): 116 nM and 56.3 nM
TGI (NCI-H23 lung): 2230 nM and 627 nM
GI50 (HCT-15 colon): 36.8 nM and 24.6 nM
TGI (HCT-15 colon): 279 nM and 150 nM
GI50 (IGROV1 ovarian): 161 nM and 59.6 nM
TGI (IGROV1 ovarian): 1790 nM and 1400 nM
GI50 (DU-145 prostate): 58.1 nM and 36.6 nM
TGI (DU-145 prostate): 1620 nM and 1080 nM
GI50 (U251 CNS): 28.9 nM and 23.9 nM
TGI (U251 CNS): 195 nM and 122 nM
GI50 (SF-539 CNS): 66.8 nM and 49.2 nM
TGI (SF-539 CNS): 1080 nM and 263 nM
GI50 (CAKI-1 renal): 49.8 nM and 26.9 nM
GI50 (HS 578T breast): 96.2 nM and 27.7 nM
TGI (HS 578T breast): 697 nM and 238 nM
GI50 (786-0 renal): 52 nM and 34.8 nM
TGI (786-0 renal): 378 nM and 226 nM
GI50 (SNB-19 CNS): 210 nM and 112 nM
TGI (SNB-19 CNS): 1960 nM
GI50 (HL-60(TB) leukemia): 62.3 nM
TGI (HL-60(TB) leukemia): 425 nM
GI50 (UO-31 renal): 103 nM and 31.8 nM
TGI (UO-31 renal): 282 nM and 128 nM
GI50 (RXF 393 renal): 69.7 nM and 47.3 nM
TGI (RXF 393 renal): 768 nM and 374 nM
GI50 (M14 melanoma): 29.6 nM and 25.2 nM
TGI (M14 melanoma): 82.3 nM and 74.8 nM
GI50 (SF-268 CNS): 48.8 nM and 38.5 nM
TGI (SF-268 CNS): 1600 nM and 1330 nM
GI50 (SR leukemia): 22.6 nM and 25 nM
GI50 (OVCAR-3 ovarian): 44.7 nM and 26.4 nM
TGI (OVCAR-3 ovarian): 463 nM and 139 nM
GI50 (MDA-MB-435): 36.7 nM and 32.4 nM
TGI (MDA-MB-435): 296 nM and 134 nM
GI50 (ACHN renal): 51.4 nM and 32.4 nM
TGI (ACHN renal): 941 nM and 750 nM
GI50 (SK-OV-3 ovarian): 326 nM and 97.8 nM
TGI (SK-OV-3 ovarian): 2480 nM and 983 nM
GI50 (LOX IMVI melanoma): 19.5 nM and 11.7 nM
TGI (LOX IMVI melanoma): 45.8 nM and 37.7 nM
GI50 (HT29 colon): 31.4 nM and 19.6 nM
TGI (HT29 colon): 1220 nM
GI50 (OVCAR-8 ovarian): 48.9 nM and 39 nM
TGI (OVCAR-8 ovarian): 1230 nM and 172 nM
GI50 (UACC-257 melanoma): 191 nM and 76.7 nM
TGI (UACC-257 melanoma): 1530 nM and 668 nM
GI50 (SK-MEL-5 melanoma): 35.8 nM and 18.6 nM
TGI (SK-MEL-5 melanoma): 138 nM and 47.1 nM
GI50 (TK-10 renal): 47.5 nM and 41.8 nM
TGI (TK-10 renal): 1010 nM and 471 nM
GI50 (SN12C renal): 70.3 nM and 45.8 nM
TGI (SN12C renal): 1430 nM and 268 nM
GI50 (PC-3 prostate): 41.3 nM and 18.3 nM
TGI (PC-3 prostate): 2060 nM and 1170 nM
GI50 (OVCAR-4 ovarian): 46.3 nM and 16.3 nM
TGI (OVCAR-4 ovarian): 1290 nM and 1240 nM
GI50 (K-562 leukemia): 37.2 nM and 44.8 nM
GI50 (MALME-3M melanoma): 116 nM and 58.5 nM
TGI (MALME-3M melanoma): 494 nM and 209 nM
GI50 (MDA-MB-231 breast): 24.4 nM
TGI (MDA-MB-231 breast): 257 nM and 76.8 nM
GI50 (MOLT-4 leukemia): 36.5 nM and 40.2 nM
TGI (MOLT-4 leukemia): 1330 nM and 7140 nM
GI50 (HCT-116 colon): 34.3 nM and 18.6 nM
TGI (HCT-116 colon): 189 nM and 133 nM
GI50 (HOP-62 NSCLC): 164 nM and 92.5 nM
TGI (HOP-62 NSCLC): 1890 nM and 1370 nM
GI50 (MCF7 breast): 39.5 nM and 36.1 nM
TGI (MCF7 breast): 859 nM and 1060 nM
GI50 (A498 renal): 41.1 nM and 29.8 nM
TGI (A498 renal): 740 nM and 219 nM
GI50 (NCI-H460 lung): 42.3 nM and 31 nM
TGI (NCI-H460 lung): 1420 nM and 1160 nM
GI50 (OVCAR-5 ovarian): 70.1 nM and 47.3 nM
TGI (OVCAR-5 ovarian): 2310 nM and 1630 nM
GI50 (SNB-75 CNS): 80.3 nM and 21.4 nM
TGI (SNB-75 CNS): 577 nM and 82.5 nM
GI50 (CCRF-CEM leukemia): 26.1 nM and 16.2 nM
GI50 (NCI-H522 lung): 49.5 nM and 23.7 nM
TGI (NCI-H522 lung): 719 nM and 262 nM
GI50 (A549 NSCLC): 32.8 nM and 28.3 nM
TGI (A549 NSCLC): 381 nM and 95.7 nM
GI50 (HCC-2998 colon): 41.9 nM and 38 nM
TGI (HCC-2998 colon): 1700 nM and 1240 nM
GI50 (SF-295 CNS): 68.9 nM and 43.1 nM
TGI (SF-295 CNS): 337 nM and 292 nM
GI50 (KM12 colon): 35.2 nM and 24.6 nM
TGI (KM12 colon): 1040 nM and 262 nM
GI50 (SK-MEL-2 melanoma): 29.7 nM and 20.5 nM
TGI (SK-MEL-2 melanoma): 75.3 nM and 60.9 nM
GI50 (COLO 205 colon): 43.6 nM and 26 nM
TGI (COLO 205 colon): 661 nM and 159 nM
GI50 (BT-549 breast): 234 nM and 119 nM
TGI (BT-549 breast): 1780 nM and 1180 nM
